Among the test systems are NCI-H226 lung; SNB-19 CNS; EKVX NSCLC; LOX IMVI melanoma; MCF7 breast; HCT-116 colon; CAKI-1 renal; SF-539 CNS; UACC-62 melanoma; SK-MEL-5 melanoma.
What all share (assay): NCI anticancer screen, dose series, 48 h

Where “and” joins values, the source holds several entries; their conditions need not be identical. Identical values can stand only once.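 Results reflect a 48-hour exposure of cells in 96-well plates to compound at five concentrations. GI50: concentration for 50% inhibition of growth. TGI marks complete inhibition of growth.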

On to `Cn1cc(-c2ccc(-c3cn(C)c4ccc(Cl)cc34)s2)c2cc(Cl)ccc21`, for which the GI50 in the experiment with NCI-H226 lung, in the experiment with SNB-19 CNS, in the experiment on EKVX NSCLC, with LOX IMVI melanoma, in the experiment on MCF7 breast and with HCT-116 colon was more than 100 µM throughout. Also, the GI50 with CAKI-1 renal, in the experiment with SF-539 CNS, with UACC-62 melanoma and in the experiment on SK-MEL-5 melanoma was more than 100 µM each time. Moreover, the TGI with NCI-H226 lung, with SNB-19 CNS, in the experiment with EKVX NSCLC, in the experiment on LOX IMVI melanoma, with MCF7 breast and in the experiment on HCT-116 colon was more than 100 µM throughout. The TGI in the experiment with CAKI-1 renal, in the experiment on SF-539 CNS, in the experiment with UACC-62 melanoma and in the experiment on SK-MEL-5 melanoma was more than 100 µM each time.

Regarding `O=C(CCCSc1nc(-c2ccccc2)cc(-c2ccc(Cl)cc2)n1)NO`, the GI50 in the experiment on NCI-H226 lung was 3.12 µM; in the experiment with SNB-19 CNS, 3.12 µM; with EKVX NSCLC, 1.8 µM; in the experiment on LOX IMVI melanoma it was 0.414 µM; in the experiment with MCF7 breast, 2.29 µM; in the experiment on HCT-116 colon it was 1.04 µM. In addition, the GI50 in the experiment on CAKI-1 renal was 0.355 µM; in the experiment with SF-539 CNS it was 1.61 µM; with UACC-62 melanoma, 1.45 µM; in the experiment on SK-MEL-5 melanoma, 2.26 µM. In addition, the TGI in the experiment on NCI-H226 lung was 17.1 µM; with SNB-19 CNS it was 14.9 µM; in the experiment on EKVX NSCLC it was 11.5 µM; in the experiment on LOX IMVI melanoma, 1.87 µM; in the experiment on MCF7 breast, 12.4 µM; in the experiment with HCT-116 colon, 13.1 µM. For the same compound, the TGI with CAKI-1 renal is 9.36 µM; in the experiment with SF-539 CNS it was 4.06 µM; with UACC-62 melanoma, 3.89 µM; in the experiment with SK-MEL-5 melanoma, 5.45 µM.

Take `CCCOC(=O)CCn1c(SC)nc2[nH]cc(-c3ccccc3)c2c1=O`: the GI50 is 18.9 µM in the experiment on NCI-H226 lung; 31.7 µM in the experiment on SNB-19 CNS; 33.9 µM in the experiment on EKVX NSCLC; 10.9 µM with LOX IMVI melanoma; 19.7 µM in the experiment on MCF7 breast; 15.4 µM with HCT-116 colon. The GI50 is 19.6 µM in the experiment with CAKI-1 renal, 24.9 µM in the experiment on SF-539 CNS, 11.7 µM in the experiment on UACC-62 melanoma and 15.9 µM in the experiment with SK-MEL-5 melanoma. For the same compound, the TGI in the experiment on NCI-H226 lung is 61.2 µM; in the experiment with SNB-19 CNS it was more than 100 µM; with EKVX NSCLC it was more than 100 µM; in the experiment on LOX IMVI melanoma it was 30.9 µM; with MCF7 breast it was more than 100 µM; with HCT-116 colon, 41 µM. Also, the TGI in the experiment with CAKI-1 renal was 54 µM; in the experiment with SF-539 CNS, more than 100 µM; in the experiment on UACC-62 melanoma it was 26.5 µM; in the experiment with SK-MEL-5 melanoma it was 35.1 µM.

Take `C/C=C/[C@@H]1OC(=O)C2=C[C@@H](O)[C@@H](/C=C/C)O[C@H]21`: the GI50 with NCI-H226 lung is 6.17 µM; in the experiment with SNB-19 CNS, 16.6 µM; in the experiment with EKVX NSCLC, 7.26 µM; in the experiment on LOX IMVI melanoma it was 6.44 µM; in the experiment on MCF7 breast it was 14.4 µM; in the experiment on HCT-116 colon it was 1.3 µM. Besides, the GI50 in the experiment with CAKI-1 renal is 1.71 µM; with SF-539 CNS, 1.1 µM; in the experiment with UACC-62 melanoma, 13.9 µM; with SK-MEL-5 melanoma it was 9.03 µM. The TGI is 13.9 µM with NCI-H226 lung; 33.8 µM in the experiment with SNB-19 CNS; 21.2 µM with EKVX NSCLC; 18.5 µM in the experiment on LOX IMVI melanoma; more than 100 µM in the experiment with MCF7 breast; 3.94 µM in the experiment on HCT-116 colon. The TGI stood at 3.81 µM in the experiment on CAKI-1 renal, 3.49 µM in the experiment with SF-539 CNS, 28.9 µM in the experiment with UACC-62 melanoma and 23.8 µM in the experiment on SK-MEL-5 melanoma.

Regarding `O=C(CN(/C=C/C(=O)C(F)(F)F)c1ccccc1)c1ccc(Cl)c(Cl)c1`, the GI50 in the experiment on NCI-H226 lung is 13.7 µM; in the experiment on SNB-19 CNS it was 20.3 µM; in the experiment with EKVX NSCLC, 13.5 µM; in the experiment on LOX IMVI melanoma, 16 µM; in the experiment on MCF7 breast, 5.2 µM; in the experiment on HCT-116 colon it was 12.7 µM. In addition, the GI50 in the experiment with CAKI-1 renal was 8.44 µM; with SF-539 CNS, 18 µM; in the experiment with UACC-62 melanoma, 9.43 µM; in the experiment on SK-MEL-5 melanoma, 13.2 µM. Also, the TGI with NCI-H226 lung is 27.9 µM; in the experiment on SNB-19 CNS, 46.4 µM; with EKVX NSCLC, 28.8 µM; in the experiment with LOX IMVI melanoma, 31.8 µM; in the experiment with MCF7 breast it was 55.3 µM; in the experiment on HCT-116 colon, more than 100 µM. Further, the TGI was found to be 23.4 µM in the experiment with CAKI-1 renal, 39.8 µM in the experiment on SF-539 CNS, 21.3 µM with UACC-62 melanoma and 26.3 µM in the experiment with SK-MEL-5 melanoma.

As to `COC(=O)C(F)C(Br)C(=O)OC` (centres undefined), the TGI is 43.4 µM in the experiment with NCI-H226 lung; more than 79.3 µM with SNB-19 CNS; 3.92 µM in the experiment on EKVX NSCLC; 32 µM with LOX IMVI melanoma; 15.6 µM in the experiment with MCF7 breast; 6.09 µM with HCT-116 colon. Also, the TGI came out at 5.17 µM in the experiment with CAKI-1 renal, 20.4 µM with SF-539 CNS, 30.4 µM in the experiment on UACC-62 melanoma and 34 µM with SK-MEL-5 melanoma.

With `CCCc1cc(=O)n2c(C(=O)Nc3ccccc3OC)c(C(=O)Nc3ccc(F)cc3)sc2n1`, the GI50 in the experiment with NCI-H226 lung is 0.802 µM; in the experiment with SNB-19 CNS, 23.1 µM; in the experiment with EKVX NSCLC, 30.7 µM; in the experiment on LOX IMVI melanoma it was 5.18 µM; in the experiment with MCF7 breast, 14.6 µM; with HCT-116 colon, 4.61 µM. Further, the GI50 in the experiment on CAKI-1 renal is 35.3 µM; in the experiment on SF-539 CNS, 16.8 µM; in the experiment on UACC-62 melanoma, 4.24 µM; in the experiment with SK-MEL-5 melanoma it was 48.6 µM. Further, the TGI in the experiment on NCI-H226 lung was 6.96 µM; in the experiment with SNB-19 CNS, 68.5 µM; in the experiment on EKVX NSCLC it was more than 160 µM; in the experiment on LOX IMVI melanoma it was 38.1 µM; in the experiment on MCF7 breast, 115 µM; with HCT-116 colon, 22.2 µM. Moreover, the TGI was more than 160 µM in the experiment with CAKI-1 renal, 38 µM in the experiment with SF-539 CNS, 22.7 µM in the experiment with UACC-62 melanoma and more than 160 µM with SK-MEL-5 melanoma.

`c1ccc(P(CCP(CCP(c2ccccc2)c2ccccc2)c2ccccc2)CCP(c2ccccc2)c2ccccc2)cc1` (centres undefined): the TGI with NCI-H226 lung is more than 10 µM; in the experiment on SNB-19 CNS, more than 10 µM; with EKVX NSCLC, more than 10 µM; in the experiment with LOX IMVI melanoma it was 2.84 µM; with MCF7 breast it was 3.04 µM; with HCT-116 colon it was more than 10 µM. Moreover, the TGI with CAKI-1 renal was more than 10 µM; in the experiment with SF-539 CNS it was > 10 µM and 9.84 µM; in the experiment on UACC-62 melanoma it was more than 10 µM; with SK-MEL-5 melanoma, more than 10 µM. Also, the GI50 was more than 10 µM in the experiment on SNB-19 CNS; more than 10 µM in the experiment with EKVX NSCLC; > 10 µM and 3 µM with CAKI-1 renal; > 10 µM and 4.12 µM with SK-MEL-5 melanoma.

Values taken from PubChem BioAssay (NCI).
